Biological target: T1, ΔF508-CFTR (Homo sapiens, UniProt P13569, DEL508-508)
T1 construct: expressed in transfected cells
Assay: ΔF508-CFTR correction, membrane potential optical (FRET/VIPR) assay
Assay type: cell-based
Settings: NIH3T3 mouse fibroblasts stably expressing ΔF508-CFTR; for Emax: read-out: % Efficacy
Source text: Assays for Detecting and Measuring ΔF508-CFTR Correction Properties of Compounds
Membrane potential optical methods for assaying ΔF508-CFTR modulation properties of compounds
The optical membrane potential assay utilized voltage-sensitive FRET sensors described by Gonzalez and Tsien (See Gonzalez, J. E. and R. Y. Tsien (1995) “Voltage sensing by fluorescence resonance energy transfer in single cells” Biophys J 69(4): 1272-80, and Gonzalez, J. E. and R. Y. Tsien (1997) “Improved indicators of cell membrane potential that use fluorescence resonance energy transfer” Chem Biol 4(4): 269-77) in combination with instrumentation for measuring fluorescence changes such as the Voltage/Ion Probe Reader (VIPR) (See Gonzalez, J. E., K. Oades, et al. (1999) “Cell-based assays and instrumentation for screening ion-channel targets” Drug Discov Today 4(9): 431-439).
These voltage sensitive assays are based on the change in fluorescence resonant energy transfer (FRET) between the membrane-soluble, voltage-sensitive dye, DiSBAC2(3), and a fluorescent phospholipid, CC2-DMPE, which is attached to the outer leaflet of the plasma membrane and acts as a FRET donor. Changes in membrane potential (Vm) cause the negatively charged DiSBAC2(3) to redistribute across the plasma membrane and the amount of energy transfer from CC2-DMPE changes accordingly. The changes in fluorescence emission were monitored using VIPR™ II, which is an integrated liquid handler and fluorescent detector designed to conduct cell-based screens in 96- or 384-well microtiter plates.
1. Identification of Correction Compounds
To identify small molecules that correct the trafficking defect associated with ΔF508-CFTR; a single-addition HTS assay format was developed. The cells were incubated in serum-free medium for 16 hrs at 37° C. in the presence or absence (negative control) of test compound. As a positive control, cells plated in 384-well plates were incubated for 16 hrs at 27° C. to “temperature-correct” ΔF508-CFTR. The cells were subsequently rinsed 3× with Krebs Ringers solution and loaded with the voltage-sensitive dyes. To activate ΔF508-CFTR, 10 μM forskolin and the CFTR potentiator, genistein (20 μM), were added along with Cl^−-free medium to each well. The addition of Cl^−-free medium promoted Cl^− efflux in response to ΔF508-CFTR activation and the resulting membrane depolarization was optically monitored using the FRET-based voltage-sensor dyes.
NIH3T3 mouse fibroblasts stably expressing ΔF508-CFTR are used for optical measurements of membrane potential. The cells are maintained at 37° C. in 5% CO2 and 90% humidity in Dulbecco's modified Eagle's medium supplemented with 2 mM glutamine, 10% fetal bovine serum, 1×NEAA, β-ME, 1× pen/strep, and 25 mM HEPES in 175 cm^2 culture flasks. For all optical assays, the cells were seeded at 30,000/well in 384-well matrigel-coated plates and cultured for 2 hrs at 37° C. before culturing at 27° C. for 24 hrs for the potentiator assay. For the correction assays, the cells are cultured at 27° C. or 37° C. with and without compounds for 16-24 hours Electrophysiological Assays for assaying ΔF508-CFTR modulation properties of compounds

T1 sequence (P13569 with tags, fused parts or gaps DEL508-508): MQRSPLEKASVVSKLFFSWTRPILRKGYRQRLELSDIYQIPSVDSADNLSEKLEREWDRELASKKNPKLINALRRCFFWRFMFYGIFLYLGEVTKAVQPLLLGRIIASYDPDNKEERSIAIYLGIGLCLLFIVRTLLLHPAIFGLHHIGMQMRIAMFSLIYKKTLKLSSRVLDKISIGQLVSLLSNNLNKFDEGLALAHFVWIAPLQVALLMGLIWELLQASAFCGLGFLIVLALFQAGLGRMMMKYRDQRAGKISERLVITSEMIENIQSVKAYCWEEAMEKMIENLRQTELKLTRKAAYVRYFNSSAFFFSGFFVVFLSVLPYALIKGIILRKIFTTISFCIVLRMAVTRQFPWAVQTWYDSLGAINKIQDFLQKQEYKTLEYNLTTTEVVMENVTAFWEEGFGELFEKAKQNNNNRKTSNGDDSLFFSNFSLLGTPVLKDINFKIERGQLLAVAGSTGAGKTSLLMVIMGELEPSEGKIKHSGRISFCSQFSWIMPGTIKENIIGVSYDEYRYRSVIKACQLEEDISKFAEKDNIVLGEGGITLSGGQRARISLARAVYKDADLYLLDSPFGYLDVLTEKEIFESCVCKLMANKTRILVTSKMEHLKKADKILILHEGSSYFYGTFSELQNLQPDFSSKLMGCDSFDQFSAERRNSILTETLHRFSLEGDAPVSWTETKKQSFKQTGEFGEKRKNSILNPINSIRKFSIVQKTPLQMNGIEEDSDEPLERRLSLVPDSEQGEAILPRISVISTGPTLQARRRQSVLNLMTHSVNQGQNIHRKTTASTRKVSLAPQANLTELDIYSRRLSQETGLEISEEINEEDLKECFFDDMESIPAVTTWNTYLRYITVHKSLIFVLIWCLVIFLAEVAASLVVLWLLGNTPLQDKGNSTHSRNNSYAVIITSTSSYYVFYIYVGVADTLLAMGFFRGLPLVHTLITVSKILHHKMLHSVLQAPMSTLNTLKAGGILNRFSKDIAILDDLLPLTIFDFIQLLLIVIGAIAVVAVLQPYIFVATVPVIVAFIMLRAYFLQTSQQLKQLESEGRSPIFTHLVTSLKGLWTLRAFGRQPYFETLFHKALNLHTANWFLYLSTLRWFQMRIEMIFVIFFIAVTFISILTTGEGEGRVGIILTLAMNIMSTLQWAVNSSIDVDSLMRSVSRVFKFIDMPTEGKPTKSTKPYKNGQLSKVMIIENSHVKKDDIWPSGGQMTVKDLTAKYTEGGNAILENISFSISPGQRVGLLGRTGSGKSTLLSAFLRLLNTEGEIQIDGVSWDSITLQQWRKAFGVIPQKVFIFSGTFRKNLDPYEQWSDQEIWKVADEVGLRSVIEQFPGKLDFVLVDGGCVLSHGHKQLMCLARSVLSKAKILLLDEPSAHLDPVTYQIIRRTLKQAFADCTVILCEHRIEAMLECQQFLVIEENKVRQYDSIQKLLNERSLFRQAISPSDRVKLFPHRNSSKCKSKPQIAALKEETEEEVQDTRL

Row | SMILES | EC50 [nM] | Emax [%]
1 | COc1cc(-c2nc(NC(=O)C3(c4ccc5c(c4)OC(F)(F)O5)CC3)ccc2C)c[nH]c1=O [Compound 21] | < 2000 | 50 to 100
2 | COc1cc(-c2nc(NC(=O)C3(c4ccc5c(c4)OC(F)(F)O5)CC3)cc(C)c2C)ccn1 [Compound 58] | < 2000 | > 100
3 | Cc1cc(NC(=O)C2(c3ccc4c(c3)OC(F)(F)O4)CC2)nc(-c2ccc(=O)[nH]c2)c1C [Compound 65] | < 2000 | 50 to 100
4 | COc1ncc(-c2nc(NC(=O)C3(c4ccc5c(c4)OC(F)(F)O5)CC3)ccc2C)cc1C(=O)N(C)C [Compound 73] | < 2000 | 50 to 100
5 | COc1cc(-c2nc(NC(=O)C3(c4ccc5c(c4)OC(F)(F)O5)CC3)ccc2C)ccn1 [Compound 11] | < 2000 | > 100
6 | Cc1c[nH]c(=O)c(-c2nc(NC(=O)C3(c4ccc5c(c4)CCO5)CC3)ccc2C)c1 [Compound 83] | < 2000 | 50 to 100
7 | Cc1ccc(NC(=O)C2(c3ccc4c(c3)OC(F)(F)O4)CC2)nc1-c1cc[nH]c(=O)c1 [Compound 44] | < 2000 | 50 to 100
8 | Cc1cc(NC(=O)C2(c3ccc4c(c3)OC(F)(F)O4)CC2)nc(-c2ccc(=O)[nH]c2)c1 [Compound 27] | < 2000 | > 100
9 | COc1ncc(C)cc1-c1nc(NC(=O)C2(c3ccc4c(c3)OC(F)(F)O4)CC2)ccc1C [Compound 8] | < 2000 | 50 to 100
10 | COc1ncccc1-c1nc(NC(=O)C2(c3ccc4c(c3)CCO4)CC2)cc(C)c1C [Compound 100] | < 2000 | > 100
11 | Cc1ccc(NC(=O)C2(c3ccc4c(c3)OC(F)(F)O4)CC2)nc1-c1c[nH]c(=O)c(CO)c1 [Compound 1] | < 2000 | 50 to 100
12 | Cc1cc(NC(=O)C2(c3ccc4c(c3)OC(F)(F)O4)CC2)nc(-c2ccc(=O)[nH]c2C)c1C [Compound 108] | < 2000 | > 100
13 | COc1ccc(C2(C(=O)Nc3ccc(C)c(-c4cccnc4OC)n3)CC2)cc1 [Compound 7] | < 2000 | 50 to 100
14 | Cc1ccc(NC(=O)C2(c3ccc4c(c3)OC(F)(F)O4)CC2)nc1-c1ccc(=O)n(C[C@@H](O)CO)c1 [Compound 79] | < 2000 | > 100
15 | Cc1ccc(NC(=O)C2(c3ccc4c(c3)OC(F)(F)O4)CC2)nc1-c1ccc(=O)n(CC(=O)NC#N)c1 [Compound 74] | 2000 to 5000 | < 50
16 | Cc1cc(NC(=O)C2(c3ccc4c(c3)OC(F)(F)O4)CC2)nc(-c2cc(C)c[nH]c2=O)c1 [Compound 92] | < 2000 | 50 to 100
17 | COC(=O)Cn1cc(-c2nc(NC(=O)C3(c4ccc5c(c4)OC(F)(F)O5)CC3)ccc2C)cc(C#N)c1=O [Compound 110] | < 2000 | 50 to 100
18 | COc1ccc(C2(C(=O)Nc3ccc(C)c(-c4cc[nH]c(=O)c4)n3)CC2)cc1 [Compound 26] | < 2000 | 50 to 100
19 | Cc1ccc(NC(=O)C2(c3ccc4c(c3)OC(F)(F)O4)CC2)nc1-c1cc(Cl)c[nH]c1=O [Compound 85] | < 2000 | > 100
20 | O=C(Nc1cccc(-c2ccc[nH]c2=O)n1)C1(c2ccc3c(c2)OC(F)(F)O3)CC1 [Compound 51] | < 2000 | > 100
21 | Cc1ccc(NC(=O)C2(c3ccc4c(c3)OCCO4)CC2)nc1-c1c[nH]c(=O)c(C)c1 [Compound 60] | < 2000 | 50 to 100
22 | Cc1cc(-c2nc(NC(=O)C3(c4ccc5c(c4)OC(F)(F)O5)CC3)ccc2C)cc(=O)[nH]1 [Compound 106] | < 2000 | > 100
23 | COc1ccc(-c2nc(NC(=O)C3(c4ccc5c(c4)OC(F)(F)O5)CC3)ccc2Cl)cn1 [Compound 24] | < 2000 | > 100
24 | COc1cc(-c2cc(C)cc(NC(=O)C3(c4ccc5c(c4)OC(F)(F)O5)CC3)n2)ccn1 [Compound 3] | < 2000 | > 100
25 | COc1cccc(-c2nc(NC(=O)C3(c4ccc5c(c4)OC(F)(F)O5)CC3)ccc2C)n1 [Compound 35] | < 2000 | 50 to 100

Row | SMILES | EC50 [nM] | Emax [%]
26 | Cc1c[nH]c(=O)c(-c2nc(NC(=O)C3(c4ccc5c(c4)OC(F)(F)O5)CC3)ccc2C)c1 [Compound 31] | < 2000 | 50 to 100
27 | COc1ncc(-c2nc(NC(=O)C3(c4ccc5c(c4)OC(F)(F)O5)CC3)ccc2C)cc1F [Compound 43] | < 2000 | > 100
28 | CNC(=O)c1cc(-c2nc(NC(=O)C3(c4ccc5c(c4)OC(F)(F)O5)CC3)ccc2C)c[nH]c1=O [Compound 32] | 2000 to 5000 | 50 to 100
29 | Cc1cc(NC(=O)C2(c3ccc4c(c3)OC(F)(F)O4)CC2)nc(-c2c[nH]c(=O)cc2C)c1 [Compound 113] | < 2000 | > 100
30 | COc1ncc(-c2nc(NC(=O)C3(c4ccc5c(c4)OC(F)(F)O5)CC3)ccc2C)cc1N [Compound 9] | < 2000 | > 100
31 | COc1ccc(-c2nc(NC(=O)C3(c4ccc5c(c4)OC(F)(F)O5)CC3)ccc2C)c(C)n1 [Compound 36] | < 2000 | > 100
32 | Cc1cc(NC(=O)C2(c3ccc4c(c3)CCO4)CC2)nc(-c2ccc(=O)[nH]c2)c1C [Compound 112] | < 2000 | 50 to 100
33 | Cc1ccc(NC(=O)C2(c3ccc4c(c3)OC(F)(F)O4)CC2)nc1-c1c[nH]c(=O)c(C(N)=O)c1 [Compound 34] | 2000 to 5000 | 50 to 100
34 | COc1cc(-c2nc(NC(=O)C3(c4ccc5c(c4)OC(F)(F)O5)CC3)ccc2C)cnc1OC [Compound 72] | < 2000 | > 100
35 | CCc1ccc(NC(=O)C2(c3ccc4c(c3)OC(F)(F)O4)CC2)nc1-c1ccc(=O)[nH]c1 [Compound 5] | < 2000 | 50 to 100
36 | COc1ncc(-c2nc(NC(=O)C3(c4ccc5c(c4)OC(F)(F)O5)CC3)ccc2C)cc1NC(C)=O [Compound 33] | < 2000 | > 100
37 | Cc1c[nH]c(=O)c(-c2nc(NC(=O)C3(c4ccc5c(c4)OC(F)(F)O5)CC3)cc(C)c2C)c1 [Compound 91] | < 2000 | > 100
38 | Cc1ncc(NC(=O)C2(c3ccc4c(c3)OC(F)(F)O4)CC2)nc1-c1ccc(=O)[nH]c1 [Compound 55] | < 2000 | 50 to 100
39 | Cc1ccc(NC(=O)C2(c3ccc4c(c3)CCO4)CC2)nc1-c1cc[nH]c(=O)c1 [Compound 80] | < 2000 | 50 to 100
40 | Cc1ccc(NC(=O)C2(c3ccc(Cl)cc3)CC2)nc1-c1c[nH]c(=O)c(C)c1 [Compound 61] | < 2000 | 50 to 100
41 | CCc1ccc(NC(=O)C2(c3ccc4c(c3)OC(F)(F)O4)CC2)nc1-c1ccc(OC)nc1 [Compound 30] | < 2000 | 50 to 100
42 | Cc1ccc(NC(=O)C2(c3ccc4c(c3)OC(F)(F)O4)CC2)nc1-c1ccc(=O)n(CC#N)c1 [Compound 97] | < 2000 | 50 to 100
43 | Cc1ccc(NC(=O)C2(c3ccc4c(c3)OC(F)(F)O4)CC2)nc1-c1ccn(CCO)c(=O)c1 [Compound 29] | < 2000 | > 100
44 | Cc1ccc(NC(=O)C2(c3ccc4c(c3)CCC4)CC2)nc1-c1ccc(=O)[nH]c1 [Compound 115] | < 2000 | 50 to 100
45 | Cc1ccc(NC(=O)C2(c3ccc4c(c3)OC(F)(F)O4)CC2)nc1-c1ccc(=O)n(CC(=O)O)c1 [Compound 13] | > 5000 | 50 to 100
46 | COC(=O)Cn1ccc(-c2nc(NC(=O)C3(c4ccc5c(c4)OC(F)(F)O5)CC3)ccc2C)cc1=O [Compound 16] | < 2000 | 50 to 100
47 | Cc1ncc(NC(=O)C2(c3ccc4c(c3)OC(F)(F)O4)CC2)nc1-c1ccc[nH]c1=O [Compound 54] | < 2000 | 50 to 100
48 | Cc1cc(=O)[nH]cc1-c1nc(NC(=O)C2(c3ccc4c(c3)OC(F)(F)O4)CC2)ccc1C [Compound 14] | < 2000 | 50 to 100
49 | Cc1cc(NC(=O)C2(c3ccc4c(c3)CCO4)CC2)nc(-c2cc[nH]c(=O)c2)c1C [Compound 109] | < 2000 | 50 to 100

From patent US8969386B2, “Modulators of CFTR” (Vertex Pharmaceuticals Incorporated, priority 2007, dated 2015)
